Data: ChEMBL document CHEMBL4251615, “Discovery of anilino-furo[2,3-d]pyrimidine derivatives as dual inhibitors of EGFR/HER2 tyrosine kinase and their anticancer activity” (Eur J Med Chem, 2018)
The source made the active and inactive calls. The rule behind the calls is not given here.

Columns and labels:
[1] = target: T1, Epidermal growth factor receptor (Homo sapiens, UniProt P00533); test: Inhibition of recombinant human C-terminal His/N-terminal GST-tagged EGFR (668 to 1210 residues) expressed in baculovirus infected Sf9 cells at 10 uM using biotin-labeled poly[Glu:Tyr] (4:1) as substrate after 30 mins by Kinase-Glo plus luminescence assay relative to control
T1 sequence (P00533 whole entry, the tested form may be a part): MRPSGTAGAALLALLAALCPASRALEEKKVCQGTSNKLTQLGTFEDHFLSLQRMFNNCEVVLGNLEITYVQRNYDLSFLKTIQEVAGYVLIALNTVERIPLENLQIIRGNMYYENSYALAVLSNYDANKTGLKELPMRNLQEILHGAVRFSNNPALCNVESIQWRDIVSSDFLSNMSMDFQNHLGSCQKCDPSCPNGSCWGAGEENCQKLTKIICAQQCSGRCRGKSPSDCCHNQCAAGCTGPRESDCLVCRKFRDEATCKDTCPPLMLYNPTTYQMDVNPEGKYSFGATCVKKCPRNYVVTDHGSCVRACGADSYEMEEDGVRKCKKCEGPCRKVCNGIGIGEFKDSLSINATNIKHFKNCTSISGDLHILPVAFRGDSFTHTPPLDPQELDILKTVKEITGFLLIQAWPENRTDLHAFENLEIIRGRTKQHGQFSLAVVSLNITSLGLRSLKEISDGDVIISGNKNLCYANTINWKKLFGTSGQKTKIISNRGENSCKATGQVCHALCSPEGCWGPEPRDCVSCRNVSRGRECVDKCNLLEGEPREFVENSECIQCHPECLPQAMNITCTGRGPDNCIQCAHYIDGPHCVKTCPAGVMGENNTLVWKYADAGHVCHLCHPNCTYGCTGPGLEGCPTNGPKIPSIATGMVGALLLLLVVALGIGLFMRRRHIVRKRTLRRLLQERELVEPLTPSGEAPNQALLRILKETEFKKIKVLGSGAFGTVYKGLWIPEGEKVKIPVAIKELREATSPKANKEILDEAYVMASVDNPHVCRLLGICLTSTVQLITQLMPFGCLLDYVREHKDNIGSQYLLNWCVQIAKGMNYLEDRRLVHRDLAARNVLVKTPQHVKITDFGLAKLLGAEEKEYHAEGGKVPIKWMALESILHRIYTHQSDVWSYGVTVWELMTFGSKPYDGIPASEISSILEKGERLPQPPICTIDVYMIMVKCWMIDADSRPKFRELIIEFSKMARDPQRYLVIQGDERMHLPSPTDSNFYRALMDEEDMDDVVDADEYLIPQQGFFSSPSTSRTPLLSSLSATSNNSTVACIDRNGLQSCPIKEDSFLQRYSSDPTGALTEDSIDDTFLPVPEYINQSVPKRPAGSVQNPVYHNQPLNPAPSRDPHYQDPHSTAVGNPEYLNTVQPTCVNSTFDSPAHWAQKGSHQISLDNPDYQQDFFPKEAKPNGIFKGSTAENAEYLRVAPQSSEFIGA

[2] = tested on: MCF7; test: Cytotoxicity against human MCF7 cells assessed as reduction in cell viability after 72 hrs by MTT assay; type: functional, cell-based; details: MCF7, 72 h
[3] = tested on: A549; test: Cytotoxicity against human A549 cells assessed as reduction in cell viability after 72 hrs by MTT assay; type: functional, cell-based; details: A549, 72 h
[4] = target: Receptor tyrosine-protein kinase erbB-2 (Homo sapiens) (UniProt P04626); test: Inhibition of recombinant human N-terminal GST-tagged HER2 (679 to 1255 residues) expressed in baculovirus infected Sf9 cells at 10 uM using poly[Glu:Tyr] (4:1) as substrate after 40 mins by Kinase-Glo plus luminescence assay relative to control
Receptor tyrosine-protein kinase erbB-2 (Homo sapiens), sequence (P04626 whole entry, the tested form may be a part): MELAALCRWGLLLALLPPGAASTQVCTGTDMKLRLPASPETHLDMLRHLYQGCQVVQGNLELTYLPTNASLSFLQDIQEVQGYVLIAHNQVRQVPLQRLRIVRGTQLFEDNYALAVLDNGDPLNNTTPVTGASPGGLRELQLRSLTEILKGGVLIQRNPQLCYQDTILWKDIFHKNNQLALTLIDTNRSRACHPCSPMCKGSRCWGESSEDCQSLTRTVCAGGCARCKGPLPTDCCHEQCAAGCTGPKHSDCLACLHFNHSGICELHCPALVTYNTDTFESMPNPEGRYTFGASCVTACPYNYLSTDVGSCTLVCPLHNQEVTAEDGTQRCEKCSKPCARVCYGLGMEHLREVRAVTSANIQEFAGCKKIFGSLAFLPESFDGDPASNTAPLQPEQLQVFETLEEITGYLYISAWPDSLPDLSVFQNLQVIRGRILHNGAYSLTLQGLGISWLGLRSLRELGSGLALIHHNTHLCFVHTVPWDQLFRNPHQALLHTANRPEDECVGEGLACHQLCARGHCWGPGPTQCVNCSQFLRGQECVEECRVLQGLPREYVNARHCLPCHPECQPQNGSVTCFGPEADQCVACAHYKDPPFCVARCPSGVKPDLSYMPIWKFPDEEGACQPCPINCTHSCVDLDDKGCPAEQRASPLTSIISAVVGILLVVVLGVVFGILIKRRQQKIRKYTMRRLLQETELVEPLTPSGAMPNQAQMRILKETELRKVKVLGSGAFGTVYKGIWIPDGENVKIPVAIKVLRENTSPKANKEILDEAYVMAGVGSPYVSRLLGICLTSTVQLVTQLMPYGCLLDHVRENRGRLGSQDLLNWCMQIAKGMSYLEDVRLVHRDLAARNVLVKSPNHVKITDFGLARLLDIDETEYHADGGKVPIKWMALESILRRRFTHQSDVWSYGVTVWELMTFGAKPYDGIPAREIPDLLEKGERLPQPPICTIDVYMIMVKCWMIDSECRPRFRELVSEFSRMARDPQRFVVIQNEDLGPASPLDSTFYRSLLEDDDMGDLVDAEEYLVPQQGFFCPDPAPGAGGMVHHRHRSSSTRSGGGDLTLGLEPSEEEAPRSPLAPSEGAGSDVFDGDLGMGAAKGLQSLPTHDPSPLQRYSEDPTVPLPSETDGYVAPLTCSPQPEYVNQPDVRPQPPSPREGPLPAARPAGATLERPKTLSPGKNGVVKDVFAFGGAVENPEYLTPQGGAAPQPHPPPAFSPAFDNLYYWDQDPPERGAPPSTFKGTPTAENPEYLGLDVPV

[5] = tested on: Ehrlich; test: Antitumor activity against mouse EAC cells implanted in albino mouse assessed as tumor growth inhibition at 5 mg/kg, po once daily for 8 consecutive days relative to control; type: functional; details: read-out: TGI
[6] = tested on: Ehrlich; test: Antitumor activity against mouse EAC cells implanted in albino mouse assessed as tumor growth inhibition at 10 mg/kg, po once daily for 8 consecutive days relative to control; type: functional; details: read-out: TGI
[7] = tested on: Ehrlich; test: Antitumor activity against mouse EAC cells implanted in albino mouse assessed as tumor growth inhibition administered orally once daily for 8 consecutive days; type: functional
[8] = tested on: Mus musculus; test: Toxicity in albino mouse implanted with mouse EAC cells assessed as body weight change at 5 to 10 mg/kg, po once daily for 8 consecutive days; type: organism-based; details: in vivo
[9] = tested on: Mus musculus; test: Toxicity in albino mouse implanted with mouse EAC cells assessed as change in organ index at 5 to 10 mg/kg, po once daily for 8 consecutive days; type: organism-based; details: in vivo
[10] = tested on: Ehrlich; test: Antitumor activity against mouse EAC cells implanted in albino mouse assessed as cell death in thigh muscle tumor cells at 10 mg/kg, po once daily for 8 consecutive days by hematoxylin and eosin staining based light microscopic method; type: functional, organism-based
[11] = tested on: Ehrlich; test: Antitumor activity against mouse EAC cells implanted in albino mouse assessed as increase in caspase-3 expression in tumor at 10 mg/kg, po once daily for 8 consecutive days by immunohistochemical analysis relative to control; type: functional
[12] = tested on: Ehrlich; test: Antitumor activity against mouse EAC cells implanted in albino mouse assessed as increase in cytochrome-c expression in tumor at 10 mg/kg, po once daily for 8 consecutive days by immunohistochemical analysis; type: functional, organism-based
[13] = tested on: A549; test: Cell cycle arrest in human A549 cells assessed as accumulation at pre-G1 phase after 24 hrs by propidium iodide staining based flow cytometry relative to control; type: functional
[14] = tested on: A549; test: Cell cycle arrest in human A549 cells assessed as accumulation at G2/M phase after 24 hrs by propidium iodide staining based flow cytometry relative to control; type: functional
[15] = tested on: A549; test: Induction of apoptosis in human A549 cells assessed as increase in early apoptotic cells after 24 hrs by Annexin V-FITC/propidium iodide staining based flow cytometry relative to control; type: functional
[16] = tested on: A549; test: Induction of apoptosis in human A549 cells assessed as increase in late apoptotic cells after 24 hrs by Annexin V-FITC/propidium iodide staining based flow cytometry relative to control; type: functional
[17] = tested on: A549; test: Induction of apoptosis in human A549 cells assessed as live cells after 24 hrs by Annexin V-FITC/propidium iodide staining based flow cytometry (reference value: 97.93%); type: functional
[18] = tested on: A549; test: Induction of apoptosis in human A549 cells assessed as early apoptotic cells after 24 hrs by Annexin V-FITC/propidium iodide staining based flow cytometry (reference value: 0.26%); type: functional
[19] = tested on: A549; test: Induction of apoptosis in human A549 cells assessed as late apoptotic cells after 24 hrs by Annexin V-FITC/propidium iodide staining based flow cytometry (reference value: 0.11%); type: functional
[20] = tested on: A549; test: Induction of apoptosis in human A549 cells assessed as necrotic cells after 24 hrs by Annexin V-FITC/propidium iodide staining based flow cytometry (reference value: 0.17%); type: functional
[21] = target: T1, Epidermal growth factor receptor; test: Inhibition of recombinant human C-terminal His/N-terminal GST-tagged EGFR (668 to 1210 residues) expressed in baculovirus infected Sf9 cells using biotin-labeled poly[Glu:Tyr] (4:1) as substrate after 30 mins by Kinase-Glo plus luminescence assay
[22] = tested on: Ehrlich; test: Antitumor activity against mouse EAC cells implanted in albino mouse assessed as focal cell death in thigh muscle tumor cells at 5 to 10 mg/kg, po once daily for 8 consecutive days by hematoxylin and eosin staining based light microscopic method; type: functional, organism-based

| inhibition [1] | Structure (SMILES) | IC50 [2] | IC50 [3] | further results |
| --- | --- | --- | --- | --- |
| 5% | CCOC(=O)c1c(C)oc2ncnc(Nc3ccc(OCc4cccc(Cl)c4)cc3)c12 | 54 µM | 513 µM | inhibition [4]: 7% |
| 28% | CCOC(=O)c1c(C)oc2ncnc(Nc3cccc(Cl)c3)c12 | > 1000 µM | > 1000 µM | – |
| 20% | CCCNC(=O)c1c(C)oc2ncnc(Nc3cccc(C)c3)c12 | > 1000 µM | > 1000 µM | – |
| 94% | Cc1oc2ncnc(Nc3cccc(Br)c3)c2c1C(=O)O | 68 µM | 43 µM | IC50 [21]: 0.752 µM; inhibition in vivo at 5 mg/kg [5]: 61.4%; inhibition in vivo at 10 mg/kg [6]: 70.8%; Activity [8]: Non-Toxic; Activity [9]: Non-Toxic; Activity [10]: Active; fold change (FC) [11]: >2; Activity [12]: Active; fold change (FC) [13]: 12; fold change (FC) [14]: 2; Activity [17]: 92.02%; Activity [18]: 2.78%; Activity [19]: 3.05%; Activity [20]: 0.66% |
| 6% | CCOC(=O)c1c(C)oc2ncnc(Nc3ccc(OCc4ccc(C)cc4)cc3)c12 | > 1000 µM | > 1000 µM | inhibition [4]: 20% |
| 58% | Cc1cccc(Nc2ncnc3oc(C)c(C(=O)O)c23)c1 | 57.5 µM | 100 µM | – |
| 26% | CCOC(=O)c1c(C)oc2ncnc(Nc3cccc(Br)c3)c12 | > 1000 µM | > 1000 µM | – |
| 10% | CCOC(=O)c1c(C)oc2ncnc(Nc3ccc(OCc4ccccc4)cc3)c12 | > 1000 µM | > 1000 µM | inhibition [4]: 3% |
| 21% | Cc1oc2ncnc(Nc3cccc(Cl)c3)c2c1C(=O)NC(C)C | 190 µM | > 1000 µM | – |
| 85% | Cc1oc2ncnc(Nc3cccc(Cl)c3)c2c1C(=O)O | 57.5 µM | 95.5 µM | IC50 [21]: 0.901 µM |

The next lines start with the molecule.

| Structure (SMILES) | inhibition [1] | IC50 [2] | IC50 [3] | further results |
| --- | --- | --- | --- | --- |
| CCOC(=O)c1c(C)oc2ncnc(Nc3ccccc3)c12 | 22% | 851 µM | > 1000 µM | – |
| CCOC(=O)c1c(C)oc2ncnc(Nc3ccc(OCc4cccc(F)c4)c(Cl)c3)c12 | 18% | 257 µM | 0.5 µM | inhibition [4]: 6%; inhibition in vivo at 5 mg/kg [5]: 35.1%; inhibition in vivo at 10 mg/kg [6]: 67.1%; Activity [7]: Dose-dependent effect; Activity [8]: Non-Toxic; Activity [9]: Non-Toxic; Activity [10]: Active; fold change (FC) [11]: >2; Activity [12]: Active; fold change (FC) [13]: 32; fold change (FC) [14]: 5; fold change (FC) [15]: 25; fold change (FC) [16]: 79; Activity [17]: 81.19%; Activity [18]: 6.59%; Activity [19]: 8.69%; Activity [20]: 1.67% |
| Cc1cccc(Nc2ncnc3oc(C)c(CO)c23)c1 | 72% | 17 µM | 24 µM | – |
| C#Cc1cccc(Nc2ncnc3oc(C)c(C(=O)OCC)c23)c1 | 26% | > 1000 µM | > 1000 µM | – |
| CCOC(=O)c1c(C)oc2ncnc(Nc3cccc(OC)c3)c12 | 6% | > 1000 µM | > 1000 µM | – |
| Cc1oc2ncnc(Nc3cccc(Br)c3)c2c1CO | 70% | 11 µM | 102 µM | – |
| Cc1oc2ncnc(Nc3ccccc3)c2c1C(=O)O | 30% | 246 µM | 191 µM | – |
| CCOC(=O)c1c(C)oc2ncnc(Nc3cccc(C)c3)c12 | 52% | > 1000 µM | > 1000 µM | – |
| Cc1oc2ncnc(Nc3cccc(Br)c3)c2c1C(=O)NCCO | 73% | 22 µM | 17.4 µM | – |
| COc1cc2ncnc(Nc3ccc(F)c(Cl)c3)c2cc1OCCCN1CCOCC1 [GEFITINIB] | – | – | – | Activity [10]: Active; Activity [11]: Active; Activity [12]: Active; Activity [17]: 84.12%; Activity [18]: 5.84%; Activity [19]: 6.72%; Activity [20]: 1.67% |
| Cc1oc2ncnc(Nc3cccc(Cl)c3)c2c1C(=O)NCCO | 85% | > 1000 µM | > 1000 µM | IC50 [21]: 2.7 µM |
| Cc1oc2ncnc(Nc3ccc(OCc4cccc(F)c4)c(Cl)c3)c2c1C(=O)O | 100% | 46 µM | 21.4 µM | IC50 [21]: 0.951 µM; inhibition [4]: 65%; inhibition in vivo at 5 mg/kg [5]: 34.9%; inhibition in vivo at 10 mg/kg [6]: 49%; Activity [8]: Non-Toxic; Activity [9]: Non-Toxic; Activity [22]: Active; Activity [11]: 51%; Activity [12]: Active; fold change (FC) [13]: 17; fold change (FC) [14]: 3; Activity [17]: 88.77%; Activity [18]: 3.72%; Activity [19]: 4.84%; Activity [20]: 0.8% |
